# Columns and labels:
# [1] = molecular target: T1, 5-HT1A receptor (Cavia porcellus, UniProt A0A286Y074); test: 5-HT1A receptor antagonism: antagonism of 5-carboxamidotryptamine in the guinea-pig ileum in vitro
# T1 construct: guinea-pig ileum in vitro; from tissue; host or cells: guinea-pig ileum
# T1 sequence (A0A286Y074 1-421): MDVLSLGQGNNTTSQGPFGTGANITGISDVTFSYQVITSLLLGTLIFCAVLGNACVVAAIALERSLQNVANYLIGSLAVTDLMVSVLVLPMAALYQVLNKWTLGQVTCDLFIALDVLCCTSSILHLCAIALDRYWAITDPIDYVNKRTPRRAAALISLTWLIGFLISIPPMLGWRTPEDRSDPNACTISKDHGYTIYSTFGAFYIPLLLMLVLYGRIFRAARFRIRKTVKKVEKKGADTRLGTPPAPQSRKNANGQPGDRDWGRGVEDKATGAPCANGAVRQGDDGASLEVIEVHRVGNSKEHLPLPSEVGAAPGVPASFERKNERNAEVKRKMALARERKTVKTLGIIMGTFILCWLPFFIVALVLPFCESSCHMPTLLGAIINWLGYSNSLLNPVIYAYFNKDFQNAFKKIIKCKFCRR
# Description: The compounds are tested for 5-HT1A receptor antagonism activity in a test involving the antagonism of 5-carboxamidotryptamine in the guinea-pig ileum in vitro (based upon the procedure of Fozard et al, Br J Pharmac, 1985, 86, 601P).
# [2] = molecular target: T2, 5-HT1A receptor (Rattus norvegicus, UniProt P19327); test: 5-HT1A receptor binding activity in rat hippocampal membrane homogenate
# T2 construct: rat hippocampal membrane homogenate; from tissue; host or cells: rat hippocampus membrane homogenate
# T2 sequence (P19327 1-422): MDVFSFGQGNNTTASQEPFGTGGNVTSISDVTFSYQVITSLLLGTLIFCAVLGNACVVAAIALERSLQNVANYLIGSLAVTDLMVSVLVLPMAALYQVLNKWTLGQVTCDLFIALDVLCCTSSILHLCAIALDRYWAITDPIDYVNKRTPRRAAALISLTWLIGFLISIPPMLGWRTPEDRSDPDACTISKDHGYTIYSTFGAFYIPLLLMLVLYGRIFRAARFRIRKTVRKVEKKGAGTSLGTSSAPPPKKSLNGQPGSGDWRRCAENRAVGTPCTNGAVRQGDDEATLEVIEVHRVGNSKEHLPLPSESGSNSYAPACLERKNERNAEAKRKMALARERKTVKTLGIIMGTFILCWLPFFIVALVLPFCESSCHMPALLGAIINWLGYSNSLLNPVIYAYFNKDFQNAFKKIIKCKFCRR
# Description: The compounds of the invention were tested for 5-HT1A receptor binding activity in rat hippocampal membrane homogenate by the method of B S Alexander and M D Wood, J Pharm Pharmacol, 1988, 40, 888-891.
"Kb ([1]; read-out: pA2, 5-HT1A receptor antagonism (converted)) [nM]",IC50 [2] [nM],"pA2, 5-HT1A receptor antagonism [1]",Structure (SMILES)
15.8,5.8,–,"COc1ccccc1N1CCN(CCN(C(=O)NC2CCCCC2)c2ccccn2)CC1 [Example 4, N-Cyclohexyl-N-(2-(1-(4-(2-methoxyphenyl)piperazinyl))ethyl)-N-(2-pyridinyl)urea]"
–,3,9.8,"O=C(C1CCCCC1)N(CCN1CCN(c2cccc3c2OCCO3)CC1)c1ccccn1 [Example 17, N-(2-(1-(4-(2,3-Dihydro-1,4-benzodioxin-5-yl)piperazinyl))ethyl)-N-(2-pyridinyl)cyclohexanecarboxamide]"

# — patent publication US6127357A, “N-((phenyl, benzodioxinyl or N-heteroarylpiperazinyl)alkyl)-N-(N-heteroaryl)substituted carboxamides” (John Wyeth & Brother, Ltd., priority 1991, dated 2000)
